The nature of data set [1]: Measurement of Liposomal pKa of LNP (TNS fluorescence). It is filed as physicochemical. To be noted: LNP without nucleic acid, cationic lipid:DOPC:Chol=52.5:7.5:40 + about 1.5 mol DMG-PEG2k; pH at which relative TNS fluorescence intensity was 50%. The procedure: Lipid nanoparticles (LNP) without containing nucleic acid were used for the evaluation of Liposomal pKa.
A 10 mM ethanol solution of cationic lipid, a 5 mM ethanol solution of DOPC, and a 10 mM ethanol solution of Chol were mixed at desired ratio (cationic lipid:DOPC:Chol=52.5:7.5:40 (molar ratio)) in an Eppendorf tube to achieve the total lipid amount of 720 nmol. To the obtained mixture was further added DMG-PEG2k (2 mM ethanol solution) in an amount of about 1.5 mol with respect to the total amount 100 mol of cationic lipid, DOPC, and Chol, and then ethanol was added to prepare an ethanol solution of the lipid (total amount: 360 μL).
(§1) An acidic malic acid buffer (20 mM, pH 3.0) (1080 μL) containing NaCl at a final concentration of 30 mM and an ethanol solution (360 μL) of lipid were each weighed in a syringe. Using an ultra high-speed nanomedicament producing apparatus NanoAssmblr (manufactured by Precision NanoSystems), LNP was prepared under the conditions of addition rate of acidic buffer solution: 3 mL/min, addition rate of ethanol solution of lipid: 1 mL/min, and syringe holder temperature: 25° C., and collected in a 15 mL tube. MES buffer (pH 6.5) (3000 μL) was added to the 15 mL tube, the obtained mixture was transferred to Amicon Ultra 4, and ultrafiltration was performed under centrifugation conditions (25° C., 1000 g, 6 min) to concentrate the mixture to about 100 μL. The obtained concentrate was diluted with PBS to 4 mL, and the mixture was concentrated again under centrifugation conditions (25° C., 1000 g, 6 min), and this operation was performed twice. The obtained concentrate was diluted with PBS to a lipid concentration of 0.5 mM to give a dispersion containing LNP.
20 mM Citrate buffer, sodium phosphate buffer, and tris HCl buffer, each containing NaCl at a final concentration of 150 mM and adjusted to various pHs within the range of pH 3.0 to 10.0, were prepared. TNS (manufactured by Sigma) was diluted with ultrapure water to 0.6 mM. TNS solution (2 μL), dispersions (12 μL) containing LNP prepared in [Experimental Example 1], 1., and buffers adjusted to various pHs (186 μL) were added to a black 96 well plate. The plate was protected from light and shaken at 400 rpm for 10 min. The fluorescence intensity (excitation: 321 nm/emission: 447 nm) was measured using a plate reader (manufactured by TECAN). The relative fluorescence intensity was calculated as a percentage, with the maximum value of the fluorescence intensity in each LNP being 100% and the minimum value being 0%. Furthermore, the pH at which the relative fluorescence intensity was 50% was taken as Liposomal pKa. In Comparative Example, the cationic lipid described in the aforementioned Table 3 were used.

The nature of data set [2]: Particle size, PdI and zeta potential of mRNA-encapsulating LNPs (dynamic light scattering). Format: physicochemical. Conditions: mRNA-encapsulating LNP, cationic lipid:DOPC:Chol=55:5:40 + about 1 mol DMG-PEG2k; for PdI / particle size: dynamic light scattering; for zeta potential: physiological pH. The procedure:
A 10 mM ethanol solution of cationic lipid, a 5 mM ethanol solution of DOPC, and a 10 mM ethanol solution of Chol were mixed at desired ratio (cationic lipid:DOPC:Chol=55:5:40 (molar ratio)) in an Eppendorf tube to achieve the total lipid amount of 720 nmol. To the obtained mixture was further added DMG-PEG2k (2 mM ethanol solution) in an amount of about 1 mol with respect to the total amount 100 mol of cationic lipid, DOPC, and Chol, and then ethanol was added to prepare an ethanol solution of the lipid (total amount: 360 μL).
An acidic buffer solution (total amount: 1080 μL) of nucleic acid was prepared by weighing 7.2 μg of mRNA solution (0.6 mg/mL) in a 5 mL tube and adding acidic malate buffer (20 mM, pH 3.0) containing NaCl at a final concentration of 30 mM.
as §1, with “buffer solution of nucleic” for “malic”, “acid” for “acid buffer (20 mM, pH 3.0) (1080 μL) containing NaCl at a final concentration of 30 mM”, “solution” for “solution (360 μL)”, “solution of nucleic acid:” for “solution:”, “2” for “0.5”
The particle size, PdI (Polydispersity Index), and zeta potential of the mRNA-encapsulating LNP prepared by the method of the above-mentioned 1 were measured by a dynamic light scattering method. In Comparative Example, the cationic lipid described in the aforementioned Table 3 were used.

For the next data set, the system named is HeLa cells. The experiment in a line: Evaluation of in vitro gene expression in HeLa cell (luciferase mRNA-encapsulating LNP). Format: cell-based, human. Conditions: for cumulative luciferase luminescence intensity over 24 hr: luciferase mRNA 0.4 μg per dish, LNP cationic lipid:DOPC:Chol:DMG-PEG2k=55:5:40:1; for gene expression activity compared to Comparative Example: result in words. The procedure: LNP encapsulating mRNA that expresses luciferase (cationic lipid:DOPC:Chol:DMG-PEG2k=55:5:40:1 (molar ratio)) was prepared by the method described in [Experimental Example 2], 1.
HeLa cells, which are human cervical cancer cells, were seeded in a 3.5 cm dish at 5.0×10^4 cells/2 mL/Dish 24 hours before transfection. After 24 hours, the medium was exchanged with a culture medium (D-MEM) containing 0.1 mM D-luciferin. Prepared mRNA-encapsulating LNP was diluted with PBS such that the concentration of mRNA was about 8 μg/mL. The diluted mRNA-encapsulating LNP solution (about 50 μL, mRNA: 0.4 μg) was added to the 3.5 cm dish and set in an incubator luminometer KronosDio. The luminescence intensity of luciferase was measured for 2 min every one hour. The cumulative luciferase luminescence intensity for 24 hr was calculated from the obtained time change of expression. For example, “1.0E+06” means “1.0×10^6”. In Comparative Example, the cationic lipid described in the aforementioned Table 3 were used.

The values below come from US20250213478A1, “CATIONIC LIPID HAVING DISULFIDE BOND, LIPID MEMBRANE STRUCTURE INCLUDING SAME, NUCLEIC ACID INTRODUCTION AGENT AND PHARMACEUTICAL COMPOSITION CONTAINING ANY ONE OF SAME, METHOD FOR INTRODUCING NUCLEIC ACID INTO CELL OR TARGET CELL, AND METHOD FOR PRODUCING CELLULAR PHARMACEUTICAL” (NOF Corporation, priority 2022, published 2025).

The term pKa denotes the negative logarithm of the acid dissociation constant. As to `CCCCCCCCC(CCCCCC)C(=O)Oc1ccc(CC(=O)OCCSSCCOC(=O)CCCN(C)C)cc1` (stereo not shown) [Example 4], the pKa in data set [1] is 7.8. Moreover, in data set [2], the PdI is on record as 0.116, the particle size was 64 nm and the zeta potential worked out at 12.2 mV. For the same molecule, the “cumulative luciferase luminescence intensity over 24 hr” value in the data set on HeLa cells stood at 3.09E+05 RLU.

Turning to `CCCCCCCCCCCCCCCCC(CCCCCCCCCCCCCCCC)C(=O)Oc1ccc(CC(=O)OCCSSCCOC(=O)CCCN(CC)CC)cc1` [Example 10], the pKa in data set [1] was determined as 7.4. In data set [2], the PdI amounted to 0.077, the particle size is 80 nm and the zeta potential is recorded as 4.9 mV. Further, in the data set with HeLa cells, the “cumulative luciferase luminescence intensity over 24 hr” value is 1.90E+08 RLU and the “gene expression activity compared to Comparative Example” value was “superior gene expression activity”.

As to `CCCCCCCCCCCCCCCCC(CCCCCCCCCCCCCCCC)C(=O)Oc1ccc(CC(=O)NCCSSCCNC(=O)CCN(C)C)cc1` [Example 19], in data set [1], the pKa was determined as 8.2. For the same molecule, in data set [2], the PdI was found to be 0.121, the particle size amounted to 73 nm and the zeta potential is given as 13.1 mV. For the same molecule, in the data set on HeLa cells, the “cumulative luciferase luminescence intensity over 24 hr” value came to 2.55E+07 RLU and the “gene expression activity compared to Comparative Example” value was “superior gene expression activity”.

Turning to `CCCCCCCCCCCCCCCCC(CCCCCCCCCCCCCCCC)C(=O)Oc1ccc(CC(=O)OCCSSCCN(CC)CC)cc1` [Example 17], in data set [1], the pKa amounted to 6.2. Also, in data set [2], the PdI amounted to 0.064, the particle size turned out to be 105 nm and the zeta potential is recorded as −2.6 mV. Besides, the “cumulative luciferase luminescence intensity over 24 hr” value in the data set on HeLa cells worked out at 8.39E+04 RLU.

With `CCCCCCCCCCCCCCCCC(CCCCCCCCCCCCCCCC)C(=O)Oc1ccc(CC(=O)OCCSSCCOC(=O)CCCN(CCC)CCC)cc1` [Example 12], in data set [1], the pKa is 6.2. Besides, in data set [2], the PdI was found to be 0.071, the particle size amounted to 84 nm and the zeta potential is listed as −4.4 mV. Moreover, the “cumulative luciferase luminescence intensity over 24 hr” value in the data set with HeLa cells turned out to be 1.13E+05 RLU.

For the molecule `CCCCCCCCCCC(CCCCCCCCCC)C(=O)Oc1ccc(CC(=O)OCCSSCCOC(=O)CCCN(C)C)cc1` [Example 5], the pKa in data set [1] was found to be 7.8. Besides, in data set [2], the PdI was 0.081, the particle size came to 74 nm and the zeta potential is −2.9 mV. Also, in the data set on HeLa cells, the “cumulative luciferase luminescence intensity over 24 hr” value stood at 2.15E+08 RLU and the “gene expression activity compared to Comparative Example” value is on record as “superior gene expression activity”.

Take `CCCCCCCCCCCCCCCCC(CCCCCCCCCCCCCCCC)C(=O)Oc1ccc(CC(=O)OCCSSCCOC(=O)CCCN(C)C)cc1` [Example 8]: the pKa in data set [1] worked out at 7.8. In data set [2], the PdI is on record as 0.101, the particle size is given as 72 nm and the zeta potential came to 5.3 mV. Also, in the data set on HeLa cells, the “cumulative luciferase luminescence intensity over 24 hr” value was found to be 2.83E+08 RLU and the “gene expression activity compared to Comparative Example” value is “superior gene expression activity”.

On to `CCCCCCCC/C=C\CCCCCCCC(=O)Oc1ccc(CC(=O)OCCSSCCOC(=O)CCCN(C)C)cc1OC(=O)CCCCCCC/C=C\CCCCCCCC` [Example 15], for which the pKa in data set [1] worked out at 6.3. Moreover, in data set [2], the PdI came out at 0.112, the particle size is 65 nm and the zeta potential stood at 6.0 mV. Further, in the data set with HeLa cells, the “cumulative luciferase luminescence intensity over 24 hr” value was 8.22E+07 RLU and the “gene expression activity compared to Comparative Example” value is on record as “superior gene expression activity”.

As to `CCCCCCCCCCCCCCCCC(CCCCCCCCCCCCCCCC)C(=O)Oc1ccc(CC(=O)OCCSSCCOC(=O)NCCN2CCOCC2)cc1` [Example 26], the pKa in data set [1] was 5.7. For the same molecule, the “cumulative luciferase luminescence intensity over 24 hr” value in the data set with HeLa cells came to 3.29E+05 RLU.

`CCCCCCCCCCCCCCCCC(CCCCCCCCCCCCCCCC)C(=O)Oc1ccc(CC(=O)OCCSSCCOC(=O)CCCN2CCCCC2)cc1` [Example 11]: the pKa in data set [1] is 7. In data set [2], the PdI is on record as 0.079, the particle size is reported as 86 nm and the zeta potential is on record as −0.9 mV. In the data set with HeLa cells, the “cumulative luciferase luminescence intensity over 24 hr” value worked out at 6.71E+07 RLU and the “gene expression activity compared to Comparative Example” value is given as “superior gene expression activity”.

In the case of `CCCCCCCCCCCCCCCCC(CCCCCCCCCCCCCCCC)C(=O)Oc1ccc(CC(=O)NCCSSCCNC(=O)CN(C)C)cc1` [Example 18], the pKa in data set [1] was found to be 6.8. In addition, in data set [2], the PdI amounted to 0.132, the particle size was found to be 105 nm and the zeta potential is 5.3 mV. Besides, the “cumulative luciferase luminescence intensity over 24 hr” value in the data set on HeLa cells is given as 3.99E+06 RLU.

Turning to `CCCCCCCCCCCCCCCCCCC(CCCCCCCCCCCCCCCCCC)C(=O)Oc1ccc(CC(=O)OCCSSCCOC(=O)CCCN(C)C)cc1` [Example 9], in data set [1], the pKa is 7.8. Moreover, in data set [2], the PdI amounted to 0.168, the particle size was 96 nm and the zeta potential is given as 12.1 mV. In addition, in the data set on HeLa cells, the “cumulative luciferase luminescence intensity over 24 hr” value is 1.25E+08 RLU and the “gene expression activity compared to Comparative Example” value was “superior gene expression activity”.
